In patent US10265277B2, “Composition of Olivetol and method of use to reduce or inhibit the effects of tetrahydrocannabinol in the human body” (Undoo, LLC, priority 2015, dated 2019):

System: cannabis high (psychotropic effects of THC)
Assay: real-life, non-clinical trials by volunteers: oral Olivetol softgel taken at peak of cannabis high, self-reported effects
Format: in vivo, human
Conditions: consumed before or after THC; general statement of the inventors
Procedure: A number of real-life, non-clinical trials have been performed by volunteers, to test the effects of the consumption of embodiments of the present invention, the conditions and results of which are described as follows. All tests were performed in “real life,” rather than clinical conditions. Various methods of consumption of cannabis were used, such as consumption of edibles, inhalation of cannabis smoke, or inhalation of vapor, depending upon the volunteer's preference. Some subjects reported their pre-consumption mood, pain level, etc., as well as their level of experience with consumption of cannabis. After sufficient exposure to cannabis, each subject indicated when their euphoria or “high” had reached a high level or a peak. Then, the subject took one or more oral doses of an embodiment of the present invention, containing 30 mg of Olivetol combined with edible oil in a “softgel” pill. A timer was started and the subject then reported when they felt an awareness of a decrease or reduction in their euphoria or other cannabis effects, as well as their subjective feelings, mood, pain level or other observations, until they self-reported that their cannabis effects were concluded. […]

CCCCCc1cc(O)cc(O)c1 [Olivetol, 5-pentylresorcinol]
effect of Olivetol consumption on psychotropic effects of THC: significantly reduce the psychotropic effects of THC ingestion
